# Legend:
# HSP90β [1] = biological target: T1, HSP90β (Homo sapiens, UniProt P08238, C366S); assay: colorimetric ATPase assay and MANT-ADP binding assay at […] TL; format: biochemical
# T1 construct: gene HSP90AB1; recombinant HSP90β C366S
# HSP90β [2] = biological target: T2, HSP90β (Homo sapiens, UniProt P08238); assay: colorimetric ATPase assay with recombinant protein; also MANT-ADP binding and CDC37 pulldown; format: biochemical
# T2 construct: gene HSP90AB1; recombinant HSP90β expressed in BL21(DE3) from pET52b
# T2 sequence (P08238 2-724): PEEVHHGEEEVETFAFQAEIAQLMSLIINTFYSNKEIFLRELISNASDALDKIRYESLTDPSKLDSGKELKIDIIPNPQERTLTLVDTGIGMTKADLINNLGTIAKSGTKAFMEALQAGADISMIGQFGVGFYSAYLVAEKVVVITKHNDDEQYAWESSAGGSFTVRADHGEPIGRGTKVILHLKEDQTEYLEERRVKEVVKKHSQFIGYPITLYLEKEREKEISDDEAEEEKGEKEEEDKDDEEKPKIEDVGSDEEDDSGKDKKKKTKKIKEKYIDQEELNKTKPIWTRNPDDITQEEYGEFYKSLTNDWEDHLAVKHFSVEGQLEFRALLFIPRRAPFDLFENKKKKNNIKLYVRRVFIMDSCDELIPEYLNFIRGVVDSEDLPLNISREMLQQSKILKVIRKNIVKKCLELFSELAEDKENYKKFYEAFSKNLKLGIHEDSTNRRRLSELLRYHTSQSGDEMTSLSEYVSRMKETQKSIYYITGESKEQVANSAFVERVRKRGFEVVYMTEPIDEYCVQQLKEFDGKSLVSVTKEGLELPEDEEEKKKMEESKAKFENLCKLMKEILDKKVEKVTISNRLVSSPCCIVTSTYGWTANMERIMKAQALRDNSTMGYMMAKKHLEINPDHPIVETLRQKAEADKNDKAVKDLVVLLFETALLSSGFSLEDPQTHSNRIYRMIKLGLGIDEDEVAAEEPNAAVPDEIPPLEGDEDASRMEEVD
# T1 sequence (P08238 2-724 C366S): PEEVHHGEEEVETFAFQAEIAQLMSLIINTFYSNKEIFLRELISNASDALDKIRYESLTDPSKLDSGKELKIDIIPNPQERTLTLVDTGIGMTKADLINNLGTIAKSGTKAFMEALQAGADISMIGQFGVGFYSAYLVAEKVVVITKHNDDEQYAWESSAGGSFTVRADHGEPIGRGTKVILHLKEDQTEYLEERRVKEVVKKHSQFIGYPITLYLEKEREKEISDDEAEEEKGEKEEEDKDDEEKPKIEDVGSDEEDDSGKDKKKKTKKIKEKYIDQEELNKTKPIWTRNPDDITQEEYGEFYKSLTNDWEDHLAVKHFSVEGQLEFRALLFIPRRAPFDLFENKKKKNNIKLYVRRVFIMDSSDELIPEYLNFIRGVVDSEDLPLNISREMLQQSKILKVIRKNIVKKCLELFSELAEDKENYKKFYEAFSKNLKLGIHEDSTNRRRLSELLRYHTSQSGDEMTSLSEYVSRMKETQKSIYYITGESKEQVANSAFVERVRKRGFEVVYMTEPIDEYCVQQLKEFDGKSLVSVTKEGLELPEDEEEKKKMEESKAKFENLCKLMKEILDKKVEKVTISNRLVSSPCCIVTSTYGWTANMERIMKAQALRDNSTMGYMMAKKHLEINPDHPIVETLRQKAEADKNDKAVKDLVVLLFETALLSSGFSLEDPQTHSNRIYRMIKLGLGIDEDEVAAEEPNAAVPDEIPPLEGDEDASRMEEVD
smiles,measurement,setting,value
"CC(C)[C@]12O[C@H]1[C@@H]1O[C@]13[C@]1(O[C@H]1C[C@H]1C4=C(CC[C@@]13C)C(=O)OC4)[C@@H]2O [TL, Triptolide]",colorimetric ATPase assay and MANT-ADP binding assay at 50 μM TL,HSP90β [1],TL exhibited a similar inhibitory effect on both HSP90β^WT and HSP90β^C366S
same,IC50,HSP90β [2],29.9 µM
